The values that follow come from patent US10654884B2 (Vitae Pharmaceuticals, Inc., priority 2014, dated 2020).

SMILES strings stand for the structures.

Assay [1] addresses T1, CD73 on U138 neuroglioma cells (Homo sapiens, UniProt P21589).
T1 construct: U138 neuroglioma cells, which express CD73 on their surface; endogenous in cells; host or cells: U138 neuroglioma cells (ATCC)
T1 sequence (P21589 27-549): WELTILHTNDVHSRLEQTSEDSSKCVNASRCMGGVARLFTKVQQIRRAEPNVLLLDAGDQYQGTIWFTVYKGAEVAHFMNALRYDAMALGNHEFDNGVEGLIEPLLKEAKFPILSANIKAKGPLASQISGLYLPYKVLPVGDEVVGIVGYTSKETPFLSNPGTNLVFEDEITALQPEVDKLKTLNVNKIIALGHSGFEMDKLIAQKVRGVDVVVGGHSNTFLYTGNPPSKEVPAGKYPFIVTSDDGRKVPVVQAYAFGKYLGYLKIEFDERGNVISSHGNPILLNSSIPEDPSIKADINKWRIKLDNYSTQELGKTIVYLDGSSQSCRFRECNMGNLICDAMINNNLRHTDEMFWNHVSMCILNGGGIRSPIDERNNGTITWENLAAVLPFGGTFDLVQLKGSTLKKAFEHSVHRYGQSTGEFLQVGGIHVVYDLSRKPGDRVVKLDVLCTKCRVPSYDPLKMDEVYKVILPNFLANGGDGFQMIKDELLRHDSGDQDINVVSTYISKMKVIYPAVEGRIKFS
The assay can be described thus: Inhibition of Ecto-5′-Nucleotidase Activity in U138 Neuroglioma Cells (Assay 2). Type of assay: cell-based. The conditions noted are these: 50 μM CMP, 2 hr at 37° C., malachite green readout, read-out: Assay 2: IC50, inhibition of ecto-5′-nucleotidase activity in U138 neuroglioma cells. On the procedure: Inhibition of Ecto-5′-Nucleotidase Activity in U138 Neuroglioma Cells (Assay 2)
U138 cells were obtained from the American Type Culture Collection (ATCC) (Manassas, Va.), and cultured in complete growth media (DMEM, 10% FBS, 1 mM L-glutamine, 100 U penicillin-streptomycin) at 37° C., 5% CO2. The day before the experiment, cells were seeded at 2,500 cells/well in 100 μL of complete media into 96-well plates. Cells were washed twice with 200 μL of assay buffer (20 mM HEPES, pH 7.4, 137 mM NaCl, 5.4 mM KCl, 1.3 mM CaCl2, 4.2 mM NaHCO3, 1 mg/mL glucose) to remove residual inorganic phosphate. After washing, assays contained serial dilutions of test compounds and 50 μM of cytidine-5′-monophosphate (CMP) in a total volume of 200 μL of assay buffer, with a final DMSO concentration ≤0.1%. After 2 hr at 37° C., 5% CO2, 100 μL of supernatant was removed from the cells and the concentration of inorganic phosphate was determined using malachite green reagent. IC50 values for test compounds were determined from nonlinear regression fits of the data using XLfit (IDBS).

Another assay has as its target T2, human CD73 (Homo sapiens, UniProt P21589).
T2 construct: purchased R&D Systems 5795-EN-010
T2 sequence (P21589 27-549): T1 sequence (P21589 27-549)
As to the kind of experiment: Inhibition of 5′-Nucleotidase Activity of CD73 (Assay 1). It is filed as biochemical. The conditions noted are these: human CD73 4 ng/ml, 50 μM CMP, 20 min at RT, malachite green readout; read-out: Assay 1: IC50, inhibition of 5′-nucleotidase activity of CD73. On the procedure: Inhibition of 5′-Nucleotidase Activity of CD73 (Assay 1)
Compounds of the present invention were tested for the ability to inhibit CD73 enzyme activity. Tested compounds were dissolved in DMSO (50× final concentration), and 3.2 μL of the solutions added to 96-well polystyrene plates. To these wells were added, 100 μL of human CD73 (R&D Systems Cat. No. 5795-EN-010) and 57 μL of cytidine-5′-monophosphate (CMP) solutions in assay buffer (25 mM Tris-HCl, pH 7.4, 0.005% Brij-35) were added to achieve final concentrations in the assay of 4 ng/ml CD73 and 50 μM of CMP. The assay mixture was incubated for 20 min at RT. The reaction was stopped by addition of 40 μL of malachite green reagent which was prepared by mixing together 10 ml 2M H2SO4, 2.5 ml of 15% ammonium molybdate and 0.2 ml of 11% Tween-20. The mixture was agitated vigorously for 10 min at RT, and absorbance at 620 nm was determined on a microplate spectrophotometer. […] The IC50 values were derived using a non-linear 4 parameter logistic model (XLFit software, IDBS) and correspond to the inflection points on dose-response curves.

In the case of `CC(C)(C)NC(=O)[C@@H](OC[C@H]1O[C@@H](n2cnc3c(N)nc(Cl)nc32)[C@H](O)[C@@H]1O)P(=O)(O)O` (single isomer, unassigned) [Example 19a], the half-inhibitory concentration (IC50) (in assay [1]; at human CD73) was 100 to 1000 nM in each case.
With `Cc1nnc(C(OC[C@H]2O[C@@H](n3cnc4c(N)nc(Cl)nc43)[C@H](O)[C@@H]2O)P(=O)(O)O)o1` (single isomer, unassigned) [Example 21], the values for the IC50 (in assay [1]; on human CD73) were 100 to 1000 nM and under 100 nM, respectively.
In the case of `Cc1nnc(C(OC[C@H]2O[C@@H](n3cnc4c(N)nc(Cl)nc43)[C@H](O)[C@@H]2O)P(=O)(O)O)o1` (single isomer, unassigned) [Example 21a], the IC50 in assay [1] is over 1000 nM; on human CD73, 100 to 1000 nM.
For the compound `CCOC(=O)[C@H](OC[C@H]1O[C@@H](n2cnc3c(NC4CC4)nc(Cl)nc32)[C@H](O)[C@@H]1O)P(=O)(O)O` (single isomer, unassigned) [Example 22], the IC50 (in assay [1]; on human CD73) was under 100 nM throughout.
For `CCOC(=O)[C@@H](OC[C@H]1O[C@@H](n2cnc3c(NC4CC4)nc(Cl)nc32)[C@H](O)[C@@H]1O)P(=O)(O)O` (single isomer, unassigned) [Example 22a], the IC50 (in assay [1]; on human CD73) was 100 to 1000 nM throughout.
Turning to `CCOC(=O)[C@H](OC[C@H]1O[C@@H](n2cnc3c(NC)nc(Cl)nc32)[C@H](O)[C@@H]1O)P(=O)(O)O` (single isomer, unassigned) [Example 23], the IC50 (in assay [1]; on human CD73) was under 100 nM each time.
With `CCOC(=O)[C@@H](OC[C@H]1O[C@@H](n2cnc3c(NC)nc(Cl)nc32)[C@H](O)[C@@H]1O)P(=O)(O)O` (single isomer, unassigned) [Example 23a], the IC50 (in assay [1]; at human CD73) was 100 to 1000 nM in each case.
Consider `CCOC(=O)[C@H](OC[C@H]1O[C@@H](n2cnc3c(NCc4ccccc4)nc(Cl)nc32)[C@H](O)[C@@H]1O)P(=O)(O)O` (single isomer, unassigned) [Example 24], for which the IC50 (in assay [1]; on human CD73) was under 100 nM in each case.
In the case of `CCOC(=O)[C@@H](OC[C@H]1O[C@@H](n2cnc3c(NCc4ccccc4)nc(Cl)nc32)[C@H](O)[C@@H]1O)P(=O)(O)O` (single isomer, unassigned) [Example 24a], the 50% inhibitory concentration (IC50) (in assay [1]; on human CD73) was 100 to 1000 nM in each case.
On to `CCOC(=O)[C@H](OC[C@H]1O[C@@H](n2cnc3c(NC4CCCC4)nc(Cl)nc32)[C@H](O)[C@@H]1O)P(=O)(O)O` (single isomer, unassigned) [Example 25], for which the IC50 (in assay [1]; on human CD73) was under 100 nM each time.
Take `CCOC(=O)[C@@H](OC[C@H]1O[C@@H](n2cnc3c(NC4CCCC4)nc(Cl)nc32)[C@H](O)[C@@H]1O)P(=O)(O)O` (single isomer, unassigned) [Example 25a]: the IC50 (in assay [1]; at human CD73) was under 100 nM each time.
Take `CCOC(=O)[C@H](OC[C@H]1O[C@@H](n2cnc3c(-n4ccnc4)nc(Cl)nc32)[C@H](O)[C@@H]1O)P(=O)(O)O` (single isomer, unassigned) [Example 26]: the IC50 (in assay [1]; at human CD73) was under 100 nM each time.
`CCOC(=O)[C@@H](OC[C@H]1O[C@@H](n2cnc3c(-n4ccnc4)nc(Cl)nc32)[C@H](O)[C@@H]1O)P(=O)(O)O` (single isomer, unassigned) [Example 26a]: the IC50 (in assay [1]; on human CD73) was 100 to 1000 nM each time.
Take `CCOC(=O)[C@H](OC[C@H]1O[C@@H](n2cnc3c(OCC)nc(Cl)nc32)[C@H](O)[C@@H]1O)P(=O)(O)O` (single isomer, unassigned) [Example 27]: the results for the half-inhibitory concentration (IC50) (in assay [1]; on human CD73) were 100 to 1000 nM and under 100 nM, respectively.
For `CCOC(=O)[C@@H](OC[C@H]1O[C@@H](n2cnc3c(OCC)nc(Cl)nc32)[C@H](O)[C@@H]1O)P(=O)(O)O` (single isomer, unassigned) [Example 27a], in that order: 100 to 1000 nM and 100 to 1000 nM.
The like results for `CCOC(=O)[C@H](OC[C@H]1O[C@@H](n2cnc3c(C)nc(Cl)nc32)[C@H](O)[C@@H]1O)P(=O)(O)O` (single isomer, unassigned) [Example 28] were, in that order, under 100 nM and under 100 nM.
The like results for `CCOC(=O)[C@@H](OC[C@H]1O[C@@H](n2cnc3c(C)nc(Cl)nc32)[C@H](O)[C@@H]1O)P(=O)(O)O` (single isomer, unassigned) [Example 28a] were, in that order, over 1000 nM and 100 to 1000 nM.
As for `CCOC(=O)[C@H](OC[C@H]1O[C@@H](n2ccc(=O)n(C)c2=O)[C@H](O)[C@@H]1O)P(=O)(O)O` (single isomer, unassigned) [Example 30], the values for the IC50 (in assay [1]; on human CD73) were over 1000 nM and 100 to 1000 nM, respectively.
The like results for `CCNC(=O)[C@H](OC[C@H]1O[C@@H](n2cnc3c(NCC)nc(Cl)nc32)[C@H](O)[C@@H]1O)P(=O)(O)O` (single isomer, unassigned) [Example 34] were, in that order, 100 to 1000 nM and under 100 nM.
The like results for `CCNC(=O)[C@@H](OC[C@H]1O[C@@H](n2cnc3c(NCC)nc(Cl)nc32)[C@H](O)[C@@H]1O)P(=O)(O)O` (single isomer, unassigned) [Example 34a] were, in that order, under 100 nM and under 100 nM.
The like results for `CCOC(=O)[C@H](OC[C@H]1O[C@@H](n2cnc3c(NC(=O)c4ccccc4)nc(Cl)nc32)[C@H](O)[C@@H]1O)P(=O)(O)O` (single isomer, unassigned) [Example 36] were, in that order, 100 to 1000 nM and under 100 nM.
Turning to `CCOC(=O)[C@@H](OC[C@H]1O[C@@H](n2cnc3c(NC(=O)c4ccccc4)nc(Cl)nc32)[C@H](O)[C@@H]1O)P(=O)(O)O` (single isomer, unassigned) [Example 36a], the IC50 was over 1000 nM in assay [1] and 100 to 1000 nM on human CD73.
The like results for `CCOC(=O)[C@H](OC[C@@H]1O[C@H](n2cnc3c(N)nc(C)nc32)[C@@H](O)[C@H]1O)P(=O)(O)O` (single isomer, unassigned) [Example 37] were, in that order, 100 to 1000 nM and under 100 nM.
For `CCOC(=O)[C@H](OC[C@H]1O[C@@H](n2cnc3c(N)nc(Cc4ccccc4)nc32)[C@H](O)[C@@H]1O)P(=O)(O)O` (single isomer, unassigned) [Example 39], in that order: 100 to 1000 nM and under 100 nM.
The like results for `CCOC(=O)[C@@H](OC[C@H]1O[C@@H](n2cnc3c(N)nc(Cc4ccccc4)nc32)[C@H](O)[C@@H]1O)P(=O)(O)O` (single isomer, unassigned) [Example 39a] were, in that order, over 1000 nM and over 1000 nM.
As to `CCOC(=O)[C@H](OC[C@H]1O[C@@H](n2cnc3c(N)nc(-c4ccccc4)nc32)[C@H](O)[C@@H]1O)P(=O)(O)O` (single isomer, unassigned) [Example 40], the IC50 in assay [1] was 100 to 1000 nM; at human CD73, under 100 nM.
Take `CCOC(=O)[C@H](OC[C@H]1O[C@@H](n2cnc3c(N)nc(-c4cc(F)cc(F)c4)nc32)[C@H](O)[C@@H]1O)P(=O)(O)O` (single isomer, unassigned) [Example 41]: the 50% inhibitory concentration (IC50) was over 1000 nM in assay [1] and 100 to 1000 nM on human CD73.
For `CCOC(=O)[C@H](OC[C@H]1O[C@@H](n2cnc3c(N)nc(C(F)(F)F)nc32)[C@H](O)[C@@H]1O)P(=O)(O)O` (single isomer, unassigned) [Example 42], in that order: 100 to 1000 nM and under 100 nM.
